The Km is the substrate concentration at which the rate is half of its maximum.

One assay concerns AncMDH2. The format is biochemical, synthetic construct. Conditions: 200 uM NADH, 50 mM Tris pH 7.5, 50 mM KCl, 25 C.
In the next assay the target is T1, RbMDH (Rickettsia bellii, UniProt Q1RIT9).
T1 construct: gene mdh
The format is biochemical.

T1 sequence (Q1RIT9 whole entry, looked up): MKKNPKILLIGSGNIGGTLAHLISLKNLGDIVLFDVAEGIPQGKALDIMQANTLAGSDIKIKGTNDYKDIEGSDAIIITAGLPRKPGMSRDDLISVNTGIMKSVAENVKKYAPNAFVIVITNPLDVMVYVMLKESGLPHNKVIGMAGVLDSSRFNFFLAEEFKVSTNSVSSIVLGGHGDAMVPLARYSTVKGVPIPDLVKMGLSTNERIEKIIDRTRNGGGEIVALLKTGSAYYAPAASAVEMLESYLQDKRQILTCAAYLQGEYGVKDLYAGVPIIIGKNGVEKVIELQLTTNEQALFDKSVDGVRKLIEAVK

With `CC(=O)C(=O)O` [pyruvate], the Km in the assay on AncMDH2 worked out at 20 mM. In the case of `O=C(O)CC(=O)C(=O)O` [oxaloacetate], the KM result on RbMDH was “RbMDH is a representative α-proteobacterial MDH from Rickettsia bellii”.

These data come from publication PMC4109310, “An atomic-resolution view of neofunctionalization in the evolution of apicomplexan lactate dehydrogenases” (eLife, 2014).
